{
  "source": "patent US20250212873A1",
  "about": "“VOLATILE HDAC INHIBITORS FOR THERAPEUTIC AND PLANT APPLICATIONS” (The Regents of the University of California, priority 2022, published 2025)",
  "key": {"[1]": {"test_system": "Class I and Class II HDACs", "assay": "In vitro assays with purified human Class I and II HDACs (panel statements)", "type": "biochemical", "conditions": "15 mM in 1% DMSO; HDAC 1, 3, 4 and 6", "procedure": "Presented are data for selected compounds that act as Histone deacetylase inhibitors in vitro or HDAC inhibitors. 26 compounds were screened against purified human HDACs.\nHDAC activity of class I HDACs (HDAC1 and 3) was measured with the fluorometric HDAC Activity Assay kit: HDAC1 (10011563, Cayman Chemical, Ann Arbor, MI) and HDAC3 (50073 BPS Bioscience, San Diego, CA), according to the manufacturer's instructions. HDAC activity of class II HDACs (HDAC4 and HDAC6) was measured with the fluorometric HDAC Activity Assay kit: HDAC4, […] (50064 and 50076, BPS Bioscience, San Diego, CA), according to the manufacturer's instructions. All compounds were tested in single dose duplicate mode at 15 mM concentrations in 1% DMSO, based on the IC50 of 2,3-butanedione established in earlier work. Due to interference, concentrations of >30 mM were not used in the IC50 calculation. To account for any interference at lower concentrations, all baseline measurements of blank wells (no HDAC enzyme) were performed and subtracted with the various concentrations of 2,3-butanedione.\nDiacetyl and 3 structurally related VOCs were evaluated using in vitro assay kits for measuring activity of four purified HDACs. Of the four VOCs), each has a different functional group, two are natural in origin, previously detected from microbes that are known to be present in soil (M. C. Lemfack et al., Nucleic Acids Res 46, D1261-D1265 (2018); and R. H. Cagan, W. N. Zeiger, Proc. Nat. Acad. Sci. U.S.A. 75, 4679-4683 (1978)) and two that are not (α-angelica lactone and ethyl pyruvate). […] All 4 VOCs inhibited both Class I HDACs (L. L. Walling, The Myriad Plant Responses to Herbivores. J Plant Growth Regul 19, 195-216 (2000); and M. Heil, R. Karban, Trends Ecol Evol 25, 137-144 (2010)) and the Class II HDAC6 with differences in degree (FIG. 2A,B)."}, "[2]": {"test_system": "A. thaliana plants (Col-0)", "assay": "Flowering assay", "type": "in vivo, Arabidopsis thaliana", "conditions": "vapors from 0.1% solution", "from_the_text": "Dramatic effects of VOCs have been seen in the seedling stage. The effects on with flowering timing were observed, since the process involves numerous changes in gene expression and therefore potentially susceptible to HDAC inhibitory volatiles. Mutants in HDACs like HDA5 show delayed flowering due to upregulation of flowering repressor genes like FLC and MAF1 (M. Luo et al., Plant J 82, 925-936 (2015)). Conversely, mutants in HDA9lead to early flowering due to increased expression of FLOWERING LOCUS T (FT) and AGAMOUS-LIKE 19 (AGL19) (M. J. Kang, et al., New Phytol 206, 281-294 (2015)). We placed 3 weeks old A. thaliana plants in the glass chambers and exposed them to the vapors of two of the VOCs, diacetyl and α-angelica lactone volatilizing from 0.1% solutions in the glass chamber.\nTwenty-seven day old A. thaliana plants (Col-0), that had been transplanted at day 7 to soil, were placed in 10-gallon glass aquarium as chamber along with a petridish containing 2 ml of chemical dissolved in PO or PO alone were placed at the other side of the container. Plants were exposed to odors until all plants began to flower, with odor cartridges being replaced daily. Signs of flower buds opening were counted as plant flowering. One-way analysis of Variance (ANOVA) between groups was performed for plant exposure quantitative data using Graph Pad Prism 9."}, "[3]": {"test_system": "A549 Cancer cell line", "assay": "Cancer cell viability assay, A549", "type": "cell-based, human", "procedure": "(§1) Cells were maintained in a 37° C. incubator with 5% CO2 throughout the experiment. Compound stocks were dissolved in 10% DMSO, but final concentrations were made fresh in complete media as needed. 10% DMSO solvent was used as control in complete media. Cells were seeded onto 12-well plates and allowed 12-24 hours until treatment began to allow cells to adhere to wells. This was followed by minimum 5-day treatment of compounds, changing the media with treatment every 48 hours. Cell lines A549, PC3, and SK-MEL-5 were seeded at 8000 cells/well which would provide 80-100% confluency after 6-day growth. SH-SY5Y was seeded at 8000 cells/well then 16,000 cells/well due to slower growth and given at least 10 days for sufficient growth. After allotted growth times, cell counts were performed via Countess™ automated cell counter. All assays were completed with a minimum of triplicate replicates for all conditions and analyzed through GraphPad Prism One-way ANOVA for significance."}, "[4]": {"test_system": "SH-SY5Y Cancer cell line", "assay": "Cancer cell viability assay, SH-SY5Y", "type": "cell-based", "procedure": "as §1"}, "[5]": {"test_system": "mouse brain", "assay": "Brain RNA-seq of mice exposed to diacetyl vapors", "type": "in vivo", "conditions": "5 days", "from_the_text": "HDAC inhibitors are an important class of drugs being tested for a number of different conditions including neurodegenerative diseases and brain cancers. A major design challenge for such drugs is the ability to cross the blood-brain barrier. An interesting possibility that arises due to the volatility and small size of odorants is that they could diffuse through the intranasal route to the brain directly. To test whether cells in the brain respond to diacetyl vapors by altering gene expression RNA-seq experiments were carried out on mice exposed only to aroma of diacetyl for 5 days. Littermate controls were exposed in a similar manner to the solvent (PO) headspace.\nThe DEGs from the diacetyl-exposed mouse brain transcriptome for several of these key genes were evaluated."}, "[6]": {"conditions": "0.1% headspace, |log2 fold-change|>1, FDR<0.05"}, "[7]": {"conditions": "1% headspace, |log2 fold-change|>1, FDR<0.01"}},
  "note": "Entries after “also recorded” stand apart in the source; their conditions may differ.",
  "data": [
    {"smiles": "CC(=O)C(C)=O", "note": "[2,3-butanedione]", "values": [
      {"measurement": "HDAC inhibition against Class I and Class II HDACs", "setting": "[1]", "value": "inhibits both class 1 and class 2 HDACs"},
      {"measurement": "delay in flowering", "setting": "[2]", "value": 11, "unit": "days"},
      {"measurement": "changes in proliferation, A549", "setting": "[3]; 100 mM treatment, triplicates", "value": "No significant changes in proliferations"},
      {"measurement": "inhibition of cell growth, A549", "setting": "[3]; 33 micro-molar", "value": "may be some A549 inhibition"},
      {"measurement": "inhibition of neuroblastoma (SH-SY5Y) cell line, summary", "setting": "[4]", "value": "has potential in inhibiting"},
      {"measurement": "changes in proliferation, SH-SY5Y", "setting": "[4]; 33 micro-molar", "value": "significant inhibition of cell growth; also recorded: Significant changes in proliferations"},
      {"measurement": "changes in proliferation, SH-SY5Y", "setting": "[4]; 100 micro-molar", "value": "significant inhibition of cell growth; also recorded: Significant changes in proliferations"},
      {"measurement": "down regulated genes in mouse brain", "setting": "[5]; [6]", "value": 32, "unit": "genes"},
      {"measurement": "up-regulated genes in mouse brain", "setting": "[5]; [6]", "value": 49, "unit": "genes"},
      {"measurement": "down regulated genes in mouse brain", "setting": "[5]; [7]", "value": 1031, "unit": "genes"},
      {"measurement": "up-regulated genes in mouse brain", "setting": "[5]; [7]", "value": 748, "unit": "genes"},
      {"measurement": "Alk expression in mouse brain", "setting": "[5]; exposed mice of FIG. 22B (1%)", "value": "significantly downregulated"},
      {"measurement": "ERCC6L2 expression in mouse brain", "setting": "[5]; exposed mice of FIG. 22B (1%)", "value": "significantly downregulated"},
      {"measurement": "MycN expression in mouse brain", "setting": "[5]; exposed mice of FIG. 22B (1%)", "value": "significantly downregulated"},
      {"measurement": "NCAN expression in mouse brain", "setting": "[5]; exposed mice of FIG. 22B (1%)", "value": "significantly downregulated"},
      {"measurement": "STK33 expression in mouse brain", "setting": "[5]; exposed mice of FIG. 22B (1%)", "value": "significantly downregulated"},
      {"measurement": "gene expression in the mouse brain (RNA-seq), in words", "setting": "[5]; inhaled vapors, 0.1% or 1% solution headspace", "value": "changes in expression of a number of genes, in a dose dependent manner"}
    ]}
  ]
}
